Assay [1] concerns recombinant cellobiose 2-epimerase. Put plainly: Substrate specificity of cellobiose 2-epimerase by TLC. It is filed as biochemical, Caldicellulosiruptor saccharolyticus ATCC43494. Details: key to Action: −: No product is detected; ±: Some products are slightly detected; +: Some products are detected; ++: Some products are clearly detected. As to conditions: for Action: 2% (w/w) substrate, MOPS buffer pH 8.0, 500 units/g-substrate, 60° C., 24 hours, product spot on TLC; for Action of the enzyme on the saccharide: summary of Table 3. How it is done:
Substrate specificity of the enzyme was investigated by allowing the purified preparation of the recombinant cellobiose 2-epimerase, obtained by the method of Experiment 4-4, to act on various saccharides. Substrate solutions were prepared by dissolving D-glucose, D-xylose, D-allose, D-ribose, D-galactose, D-fructose, D-mannose, D-psicose, D-tagatose, L-sorbose, L-rhamnose, L-ribose, trehalose, kojibiose, nigerose, isomaltose, neotrehalose, gentiobiose, lactose, sucrose, maltulose, palatinose, maltose, maltotriose, maltotetraose, maltopentaose, maltohexaose, maltoheptaose, cellobiose, cellotriose, cellotetraose, selaginose, isomaltosyl-glucoside, isomaltotriose, panose, isopanose, erlose, maltitol, maltotriitol, methyl-α-glucoside, methyl-β-glucoside, D-glucosamine, D-galactosamine, D-glucuronic acid, N-acetyl-glucosamine, or N-acetyl-galactosamine into MOPS buffer (pH 8.0) to give a final concentration of 2% (w/w) of saccharide and 40 mM buffer.
Then, each of the resulting substrate solutions was further admixed with 500 units/g-substrate, on a dry solid basis, of the purified preparation of recombinant cellobiose 2-epimerase, obtained by the method in Experiment 4-4, and followed by the enzyme reaction at 60° C. for 24 hours. After stopping the reaction by heating the reaction mixture at 100° C. for 10 minutes, each reaction mixture was subjected to TLC analysis under the conditions in Experiment 1-2 to examine the saccharides in each mixture before and after the reaction. The substrate specificity of the enzyme was judged by investigating whether the spot of the reaction product except for the substrate is detected in the TLC chromatogram or not, and the degree of the strength of the visualized spot.

Assay [2] shares this test system. Put plainly: Formation of isomerized saccharides from various saccharides, effect of the amount of enzyme. The format is biochemical, Caldicellulosiruptor saccharolyticus ATCC43494. As to conditions: 500 units/g-substrate; 10% (w/v) substrate, pH 6.0, 60° C., 72 hours. How it is done:
Each of them was dissolved into 20 mM acetate buffer (pH 6.0), admixed with the purified preparation of the recombinant cellobiose 2-epimerase, obtained by the method in Experiment 4-4, and followed the enzyme reaction under the conditions of 10% (w/v) substrate concentration, 60° C. for 72 hours. The amount of enzyme was set to 130 or 500 units/g-substrate when monosaccharide was used as the substrate, and to 1 or 130 units/g-substrate when disaccharide or trisaccharide was used as the substrate. Each reaction mixture was heated at 100° C. for 10 minutes to stop the reaction and subjected to HPLC analysis to determine the contents of isomerized saccharide, on a dry solid basis. The contents of epilactose and lactulose in the reaction mixture obtained using lactose as substrate were determined by GC analysis described in Experiment 1-2.

The source of these data is US9175282B2, “Cellobiose 2-epimerase, its preparation and uses” (HAYASHIBARA CO., LTD., priority 2009, dated 2015).

Turning to `O=C(CO)[C@@H](O)[C@@H](O)[C@H](O)CO` [D-Tagatose], in assay [1], the Action result is given as “±” and the “Action of the enzyme on the saccharide” value is on record as “slightly acted on”. In assay [2], the “Content of isomerized saccharide in the reaction mixture (%): D-Galactose” value was 4.7% and the “Content of isomerized saccharide in the reaction mixture (%): D-Talose” value is given as 5.2%. Consider `OC[C@H]1O[C@H](O[C@H]2C(O)O[C@H](CO)[C@@H](O)[C@@H]2O)[C@H](O)[C@@H](O)[C@@H]1O` (some centres unmarked) [Kojibiose], for which the Action result in assay [1] was “−”.

Turning to Maltulose, in assay [1], the Action entry was “±” and the “Action of the enzyme on the saccharide” value is recorded as “slightly acted on”. On to `N[C@H]1C(O)O[C@H](CO)[C@H](O)[C@@H]1O` (stereo partly drawn) [D-Galactosamine], for which the Action result in assay [1] is reported as “−”.

As to `OC[C@H]1O[C@H](O[C@H]2[C@H](O)[C@@H](CO)OC(O)[C@@H]2O)[C@H](O)[C@@H](O)[C@@H]1O` (some centres unmarked) [Nigerose], in assay [1], the Action entry was “−”. Same read-out and setting: the value for `O=C[C@H](O)[C@@H](O)[C@H](O)[C@H](O)C(=O)O` [D-Glucuronic acid] was “−”.

For Maltohexaose, in assay [1], the Action entry is recorded as “±” and the “Action of the enzyme on the saccharide” value was “slightly acted on”. The matching figures for `OC[C@H]1O[C@@H](O[C@H]2[C@H](O)[C@@H](O)[C@H](O[C@H]3[C@H](O)[C@@H](O)[C@H](O[C@H]4[C@H](O)[C@@H](O)C(O)O[C@@H]4CO)O[C@@H]3CO)O[C@@H]2CO)[C@H](O)[C@@H](O)[C@@H]1O` (some centres unmarked) [Cellotetraose]: “++” and “relatively strong specificity”. Consider `OC[C@@H](O)[C@@H](O[C@H]1O[C@H](CO)[C@@H](O)[C@H](O)[C@H]1O)[C@H](O)[C@@H](O)CO` [Maltitol], for which, in assay [1], the Action entry is on record as “−”. Same read-out and setting: the value for `OC[C@H]1O[C@@H](O[C@H]2O[C@H](CO)[C@@H](O)[C@H](O)[C@H]2O)[C@H](O)[C@@H](O)[C@@H]1O` [Neotrehalose] was “−”. For the molecule `OC[C@H]1O[C@H](OC[C@H]2O[C@H](O)[C@H](O)[C@@H](O)[C@@H]2O)[C@H](O)[C@@H](O)[C@H]1O` [Gentibiose], the Action result in assay [1] is “−”. For the molecule Maltoheptaose, in assay [1], the Action result is reported as “±” and the “Action of the enzyme on the saccharide” value was “slightly acted on”.

As to `OC[C@H]1O[C@H](OC[C@H]2O[C@H](OC[C@H]3OC(O)[C@H](O)[C@@H](O)[C@@H]3O)[C@H](O)[C@@H](O)[C@@H]2O)[C@H](O)[C@@H](O)[C@@H]1O` (some centres unmarked) [Isomaltotriose], in assay [1], the Action entry is reported as “−”.

As to `N[C@H]1C(O)O[C@H](CO)[C@@H](O)[C@@H]1O` (stereo partly drawn) [D-Glucosamine], the Action entry in assay [1] was “−”. Consider `OC[C@H]1O[C@H](O[C@H]2O[C@H](CO)[C@@H](O)[C@H](O)[C@H]2O)[C@H](O)[C@@H](O)[C@@H]1O` [Trehalose], for which the Action entry in assay [1] is listed as “−”.

`O=C[C@H](O)[C@@H](O)[C@H](O)CO` [D-Xylose]: the Action result in assay [1] is “−”. Take `OC[C@H]1O[C@H](OC[C@H]2O[C@H](O[C@H]3[C@H](O)[C@@H](O)C(O)O[C@@H]3CO)[C@H](O)[C@@H](O)[C@@H]2O)[C@H](O)[C@@H](O)[C@@H]1O` (some centres unmarked) [Panose]: in assay [1], the Action entry is “−”. On the same count and under the same terms, in the case of `O=C[C@@H](O)[C@@H](O)[C@@H](O)CO` [L-Ribose] it was “−”; in that of `O=C[C@H](O)[C@H](O)[C@H](O)[C@H](O)CO` [D-Allose], “−”.

In the case of `OC[C@H]1O[C@H](O[C@H]2O[C@H](CO)[C@@H](O)[C@H](O)[C@H]2O[C@H]2O[C@H](CO)[C@@H](O)[C@H](O)[C@H]2O)[C@H](O)[C@@H](O)[C@@H]1O` [Selaginose], in assay [1], the Action result is “−”. `O=C[C@@H](O)[C@@H](O)[C@@H](O)[C@H](O)CO` [D-Talose]: in assay [2], the “Content of isomerized saccharide in the reaction mixture (%): D-Galactose” value came to 27.2% and the “Content of isomerized saccharide in the reaction mixture (%): D-Tagatose” value is 17.9%. For `OC[C@H]1O[C@H](O[C@H]2[C@H](O)[C@@H](O)[C@@H](O[C@H]3[C@H](O)[C@@H](O)[C@@H](O[C@H]4[C@H](O)[C@@H](O)C(O)O[C@@H]4CO)O[C@@H]3CO)O[C@@H]2CO)[C@H](O)[C@@H](O)[C@@H]1O` (some centres unmarked) [Maltotetraose], in assay [1], the Action entry is reported as “±” and the “Action of the enzyme on the saccharide” value is “slightly acted on”.

Consider `CC(=O)N[C@H]1C(O)O[C@H](CO)[C@H](O)[C@@H]1O` (some centres unmarked) [N-Acetyl-galactosamine], for which, in assay [1], the Action result is given as “−”. As for `OC[C@H]1O[C@H](OC[C@H]2OC(O)(CO)[C@@H](O)[C@@H]2O)[C@H](O)[C@@H](O)[C@@H]1O` (some centres unmarked) [Palatinose], the Action entry in assay [1] was “−”. In the case of `C[C@H](O)[C@H](O)[C@@H](O)[C@@H](O)C=O` [L-Rhamnose], the Action entry in assay [1] is “−”. Same read-out and setting: in the case of `O=C(CO)[C@@H](O)[C@H](O)[C@@H](O)CO` [L-Sorbose] it was “−”. Turning to `CO[C@@H]1O[C@H](CO)[C@@H](O)[C@H](O)[C@H]1O` [Methyl-β-glucoside], in assay [1], the Action entry is “−”. On to `OC[C@H]1O[C@@H](O[C@H]2[C@H](O)[C@@H](O)[C@H](O[C@H]3[C@H](O)[C@@H](O)C(O)O[C@@H]3CO)O[C@@H]2CO)[C@H](O)[C@@H](O)[C@@H]1O` (some centres unmarked) [Cellotriose], for which, in assay [1], the Action entry is “++” and the “Action of the enzyme on the saccharide” value is on record as “relatively strong specificity”. `CC(=O)N[C@H]1C(O)O[C@H](CO)[C@@H](O)[C@@H]1O` (some centres unmarked) [N-Acetyl-glucosamine]: the Action result in assay [1] was “−”. Still for that read-out and setting: in the case of `OC[C@H]1O[C@H](OC[C@H]2OC(O)[C@H](O)[C@@H](O)[C@@H]2O)[C@H](O)[C@@H](O)[C@@H]1O` (some centres unmarked) [Isomaltose] it was “−”.

For the molecule Maltopentaose, in assay [1], the Action result is recorded as “±” and the “Action of the enzyme on the saccharide” value is listed as “slightly acted on”. Consider `OC[C@H]1O[C@@](CO)(O[C@H]2O[C@H](CO)[C@@H](O)[C@H](O)[C@H]2O)[C@@H](O)[C@@H]1O` [Sucrose], for which, in assay [1], the Action entry is recorded as “−”. In the case of `OC[C@@H](O)[C@@H](O[C@H]1O[C@H](CO)[C@@H](O[C@H]2O[C@H](CO)[C@@H](O)[C@H](O)[C@H]2O)[C@H](O)[C@H]1O)[C@H](O)[C@@H](O)CO` [Maltotriitol], the Action entry in assay [1] was “−”. For the molecule `CO[C@H]1O[C@H](CO)[C@@H](O)[C@H](O)[C@H]1O` [Methyl-α-glucoside], the Action entry in assay [1] is reported as “−”.

For the molecule Isomaltosyl-glucoside, in assay [1], the Action entry is on record as “−”. For the molecule `O=C(CO)[C@H](O)[C@H](O)[C@H](O)CO` [D-Psicose], the Action result in assay [1] is “−”. Same read-out and setting: the value for `OC[C@H]1O[C@@](CO)(O[C@H]2O[C@H](CO)[C@@H](O[C@H]3O[C@H](CO)[C@@H](O)[C@H](O)[C@H]3O)[C@H](O)[C@H]2O)[C@@H](O)[C@@H]1O` [Erlose] was “−”; that for `O=C[C@H](O)[C@H](O)[C@H](O)CO` [D-Ribose] was “−”. For `OC[C@H]1O[C@H](O[C@H]2[C@H](O)[C@@H](O)[C@@H](OC[C@H]3OC(O)[C@H](O)[C@@H](O)[C@@H]3O)O[C@@H]2CO)[C@H](O)[C@@H](O)[C@@H]1O` (some centres unmarked) [Isopanose], the Action entry in assay [1] is “−”.
